Laboratory results from doi:10.1101/2025.02.17.638454, “Synergistic RAS-MAPK and AKT Activation in MYC-Driven Tumors via Adjacent PVT1 Rearrangements” (bioRxiv, 2025).
No end group written: not given here.

Key:
[1] = tested on: MYC; test: q-RT-PCR of MYC transcript in D458; type: cell-based, human; conditions: D458, induction of HNB (-/+ Dox); n=3, unpaired t-test
Protocol: Total RNA was extracted with the TRIzol (Roche, Indianapolis, IN) as described by the manufacturer and complementary DNA synthesis, 1 μg of total RNA was reverse transcribed by using the GoScriptTM Reverse Transcription Mix, Random Primer Protocol (Promega, Madison, WI). Real-time PCR was run in triplicate using PowerUpTM SYBRTM Green Master Mix (Thermo Fisher Scientific), following the manufacturer’s instructions. Real-time PCR amplification monitoring was performed using the CFX96 Touch Real-Time PCR Detection System (Bio-Rad). Data were expressed as relative mRNA levels normalized to the GAPDH, served as endogenous normalization control expression levels in each sample, and are represented as mean ± standard error of the mean between 2 independent experiments unless otherwise indicated in the figure legend. The primer sequences are listed in the Supplementary Table.
(§1) The HNB ORF and eGFP (control) were cloned in an inducible lentivirus expression, TRE-gateway plasmid (pLIX_403, Addgene, #41395). Lentivirus was produced in HEK293T cells using the protocol described above. […] The protein lysates were collected and quantified using the previously described protocol. […] Bound proteins were detected with horseradish-peroxidase–conjugated secondary antibodies (Cell Signaling Technologies) and SuperSignal West Femto (Thermo Fisher Scientific). […]

[2] = tested on: phospho-MEK1/2, phospho-ERK1/2, phospho-p90RSK (RAS/MAPK pathway); test: Western blot of RAS/MAPK effectors in NCI-H1792; type: cell-based; conditions: NCI-H1792 (mutant KRAS^G12C), doxycycline-induced HNB, 1 μg/mL Dox 48 h
Protocol: For whole-cell lysate, the cell pellet was resuspended in RIPA buffer (Cell Signaling Technologies, Danvers, MA) supplemented with a protease inhibitor cocktail (Cell Signaling Technologies) and incubated on ice for 20 minutes. The lysate was then centrifuged at 14,000 revolutions/minute for 10 minutes at 4°C, and the supernatant was harvested. Protein concentration was quantified by BCA Protein Assay Kit (Thermo Fisher Scientific) as per kit protocol. Next, 20 μg of whole-cell lysate was electrophoresed on a 4%–20% gradient polyacrylamide gel with SDS (Bio-Rad, Hercules, CA) and electroblotted onto polyvinylidene difluoride membranes (Bio-Rad). Membranes were blocked in Tris-buffered saline with 5% nonfat milk and 0.1% Tween and probed with antibodies. Bound proteins were detected with horseradish-peroxidase–conjugated secondary antibodies (Cell Signaling Technologies) and SuperSignal West Femto (Thermo Fisher Scientific). […]
as §1, with “#41395).” for “#41395). Lentivirus was produced in HEK293T cells using the protocol described above.”

MKTQLGAVKGFLHV [HNB]
MYC mRNA level [1]: significantly reduced MYC expression at the mRNA as well as the protein levels
phosphorylation of MEK1/2, ERK1/2 and p90RSK [2]: significantly dampened the phosphorylation
